Measured values: patent US5194383A, “Process for making L-aminoacylase” (priority 1991, dated 1993)
Where two headings read alike, the source gives them in different places.

Legend:
[1] = test system: L-amino acylase; format: biochemical, Alcaligenes denitrificans DA181; settings: for influence of the ion on the enzyme: in words, 30 minutes at 37° C., buffer A
Description: Various metal ions were incubated with an appropriate amount of enzyme for 30 min in 50 mM Tris-HCl pH 8.0. The remaining activity was determined by ninhydrin method.

[2] = test system: L-amino acylase; assay: Substrate specificity of L-amino acylase (ninhydrin method); format: biochemical, Alcaligenes denitrificans DA181; settings: for Relative activity (%) L-amino acylase: 37° C., 50 mM Tris-HCl buffer pH 8.0
Description: This enzyme may hydrolyze N-acetyl-L-amino acids with a higher reactivity, but hydrolyze the N-acetyl-D-amino acids with a lower reactivity.
(§1) A comparison of the substrate specificity of L-amino acylase of this invention with D-amino acylase is summarized as shown in Table 3.
(§2) The enzyme activity was determined at 37° C. in 50 mM TrisCHl
(§3) buffer pH 8.0 by ninhydrin method.

[3] = test system: D-amino acylase; assay: Substrate specificity of D-amino acylase (ninhydrin method); format: biochemical; settings: D-form of substrate; 37° C., 50 mM Tris-HCl buffer pH 8.0
Description: as §1, §2, §3

[4] = test system: L-aminoacylase by Aspergillus; settings: conventional Aspergillus enzyme; cited from earlier work
[5] = metal ion 1 mM, 30 min, 50 mM Tris-HCl pH 8.0
[6] = metal ion 10^-1 mM, 30 min, 50 mM Tris-HCl pH 8.0, 100 µM
[7] = metal ion 10^-2 mM, 30 min, 50 mM Tris-HCl pH 8.0, 10 µM
[8] = metal ion 10^-3 mM, 30 min, 50 mM Tris-HCl pH 8.0, 1 µM

SMILES: [Ba+2].[Cl-].[Cl-] [BaCl2]
- relative activity of L-amino acylase (%) [1, 5]: 92%

SMILES: [Ca+2].[Cl-].[Cl-] [CaCl2]
- relative activity of L-amino acylase (%) [1, 5]: 94%

SMILES: [Cl][Cd][Cl] [CdCl2]
- influence of the ion on the enzyme [1]: inhibited
- relative activity of L-amino acylase (%) [1, 5]: 16%

SMILES: [Cl-].[Cl-].[Co+2] [CoCl2]
- relative activity of L-amino acylase (%) [1, 5]: 120%

SMILES: [Cl][Cu][Cl] [CuCl2]
- influence of the ion on the enzyme [1]: inhibited
- relative activity of L-amino acylase (%) [1, 5]: 5%
- relative activity of L-amino acylase (%) [1, 6]: 77%
- relative activity of L-amino acylase (%) [1, 7]: 90%
- relative activity of L-amino acylase (%) [1, 8]: 94%

SMILES: O=C(O)CN(CCN(CC(=O)O)CC(=O)O)CC(=O)O [EDTA.2Na]
- relative activity of L-amino acylase (%) ([1]; 50 mm tris-hcl, pH 8, 30 min, 1000 µM): 55%

SMILES: [Cl][Fe][Cl] [FeCl2]
- influence of the ion on the enzyme [1]: inhibited
- relative activity of L-amino acylase (%) [1, 5]: 15%

SMILES: [Cl][Hg][Cl] [HgCl2]
- influence of the ion on the enzyme [1]: inhibited
- relative activity of L-amino acylase (%) [1, 8]: 0%
- relative activity of L-amino acylase (%) ([1]; metal ion 10^-4 mM, 30 min, 50 mM Tris-HCl pH 8.0, 0.1 µM): 0%

SMILES: [Cl-].[Cl-].[Mg+2] [MgCl2]
- relative activity of L-amino acylase (%) [1, 5]: 98%

SMILES: [Cl][Mn][Cl] [MnCl2]
- relative activity of L-amino acylase (%) [1, 5]: 86%

SMILES: CC(=O)N[C@@H](C)C(=O)O [N-acetyl-alanine]
- Relative activity (%) L-amino acylase ([2]; D-form of substrate): 0%
- Relative activity (%) L-amino acylase ([2]; L-form of substrate): 78%
- Relative activity (%) D-amino acylase [3]: 25%

SMILES: CC[C@@H](C)[C@H](NC(C)=O)C(=O)O [N-acetyl-alloisoleucine]
- Relative activity (%) L-amino acylase ([2]; D-form of substrate): 0%
- Relative activity (%) D-amino acylase [3]: 12%

SMILES: CC(=O)N[C@@H](CCCNC(=N)N)C(=O)O [N-acetyl-arginine]
- Relative activity (%) L-amino acylase ([2]; L-form of substrate): 0.04%

SMILES: CC(=O)N[C@@H](CC(N)=O)C(=O)O [N-acetyl-asparagine]
- Relative activity (%) L-amino acylase ([2]; D-form of substrate): 0%
- Relative activity (%) L-amino acylase ([2]; L-form of substrate): 3%
- Relative activity (%) D-amino acylase [3]: 17%

SMILES: CC(=O)N[C@@H](CC(=O)O)C(=O)O [N-acetyl-aspartic acid]
- Relative activity (%) L-amino acylase ([2]; L-form of substrate): 1%

SMILES: CC(=O)N[C@@H](CCC(=O)O)C(=O)O [N-acetyl-glutamic acid]
- Relative activity (%) L-amino acylase ([2]; L-form of substrate): 0.12%

SMILES: CC(=O)N[C@@H](Cc1c[nH]cn1)C(=O)O [N-acetyl-histidine]
- Relative activity (%) L-amino acylase ([2]; L-form of substrate): 0.08%

SMILES: CC(=O)N[C@@H](CC(C)C)C(=O)O [N-acetyl-leucine]
- Relative activity (%) L-amino acylase ([2]; D-form of substrate): 2%
- Relative activity (%) L-amino acylase ([2]; L-form of substrate): 10%
- Relative activity (%) D-amino acylase [3]: 60%

SMILES: CSCC[C@H](NC(C)=O)C(=O)O [N-acetyl-methionine]
- Relative activity (%) L-amino acylase ([2]; D-form of substrate): 0.12%
- Relative activity (%) L-amino acylase ([2]; L-form of substrate): 30%
- Relative activity (%) D-amino acylase [3]: 100%

SMILES: CC(=O)N[C@@H](Cc1ccccc1)C(=O)O [N-acetyl-phenylalanine]
- Relative activity (%) L-amino acylase ([2]; D-form of substrate): 0.9%
- Relative activity (%) L-amino acylase ([2]; L-form of substrate): 34%
- Relative activity (%) D-amino acylase [3]: 81%

SMILES: CC(=O)N[C@@H](C(=O)O)c1ccccc1 [N-acetyl-phenylglycine]
- Relative activity (%) L-amino acylase ([2]; D-form of substrate): 0%
- Relative activity (%) D-amino acylase [3]: 5%

SMILES: CC(=O)N[C@@H](Cc1c[nH]c2ccccc12)C(=O)O [N-acetyl-tryptophan]
- Relative activity (%) L-amino acylase ([2]; D-form of substrate): 0.9%
- Relative activity (%) L-amino acylase ([2]; L-form of substrate): 11%
- Relative activity (%) D-amino acylase [3]: 33%

SMILES: CC(=O)N[C@@H](Cc1ccc(O)cc1)C(=O)O [N-acetyl-tyrosine]
- Relative activity (%) L-amino acylase ([2]; L-form of substrate): 36%

SMILES: CC(=O)N[C@H](C(=O)O)C(C)C [N-acetyl-valine]
- Relative activity (%) L-amino acylase ([2]; D-form of substrate): 7%
- Relative activity (%) L-amino acylase ([2]; L-form of substrate): 95%
- Relative activity (%) D-amino acylase [3]: 6%

SMILES: CC(C)[C@H](NC(=O)CCl)C(=O)O [N-chloroacetyl-L-valine]
- reactivity of hydrolysis by the enzyme ([2]; in words): especially high

SMILES: CC(C)[C@H](NC(=O)CCl)C(=O)O [N-chloroacetyl-valine]
- Relative activity (%) L-amino acylase ([2]; D-form of substrate): 0.8%
- Relative activity (%) L-amino acylase ([2]; L-form of substrate): 100%
- Relative activity (%) D-amino acylase [3]: 66%

SMILES: [Cl][Ni][Cl] [NiCl2]
- relative activity of L-amino acylase (%) [1, 5]: 95%

SMILES: [Cl][Pb][Cl] [PbCl2]
- influence of the ion on the enzyme [1]: inhibited
- relative activity of L-amino acylase (%) [1, 5]: 50%
- relative activity of L-amino acylase (%) [1, 6]: 71%
- relative activity of L-amino acylase (%) [1, 7]: 71%
- relative activity of L-amino acylase (%) [1, 8]: 97%

SMILES: [Cl-].[Cl-].[Sr+2] [SrCl2]
- relative activity of L-amino acylase (%) [1, 5]: 80%

SMILES: [Cl-].[Cl-].[Zn+2] [ZnCl2]
- influence of the ion on the enzyme [1]: inhibited
- relative activity of L-amino acylase (%) [1, 5]: 61%

SMILES: [Co+2] [cobalt ions]
- enzyme activation [4]: 2.5 fold
